Entries after “also recorded” stand apart in the source; their conditions may differ. Where two headings read alike, the source gives them in different places.
Columns and labels:
[1] = test system: E. coli 078; test: Minimal inhibitory concentration, broth-dilution test; format: cell-based; settings: Escherichia coli
Description: (§1) The antibacterial activity of 31668P and 31668U as Minimum Inhibitory Concentration values required to inhibit the growth of various bacteria are shown in Table 1.
(§2) Minimal inhibitory concentrations of the anitbiotics 31668P and
(§3) 31668U determined by the broth-dilution tests against selected
(§4) strains of bacteria (microgram per ml)

[2] = test system: E. coli 1507 E; test: as above; format: cell-based; settings: Escherichia coli, read-out: Minimal inhibitory concentration
Description: as §1, §2, §3, §4

[3] = test system: E. coli DC 0; test: as above; format: cell-based; settings: Escherichia coli, DC0
Description: as §1, §2, §3, §4

[4] = test system: E. coli DC 2; test: as above; format: cell-based; settings: Escherichia coli, DC2
Description: as §1, §2, §3, §4

[5] = test system: E. coli TEM; test: as above; format: cell-based; settings: Escherichia coli, read-out: Minimal inhibitory concentration
Description: as §1, §2, §3, §4

[6] = test system: Enterobact. cloacae 1321 E; test: as above; format: cell-based
Description: as §1, §2, §3, §4

[7] = test system: Enterobact. cloacae P 99; test: as above; format: cell-based; settings: read-out: Minimal inhibitory concentration
Description: as §1, §2, §3, §4

[8] = test system: Klebs. spec. 1082E (K-1); test: as above; format: cell-based
Description: as §1, §2, §3, §4

[9] = test system: Klebs. spec. 1522 E; test: as above; format: cell-based; settings: read-out: Minimal inhibitory concentration
Description: as §1, §2, §3, §4

[10] = test system: Pseud. aeruginosa 1592 E; test: as above; format: cell-based; settings: Pseudomonas aeruginosa
Description: as §1, §2, §3, §4

[11] = test system: Pseud. aeruginosa 1771 M; test: as above; format: cell-based; settings: Pseudomonas aeruginosa
Description: as §1, §2, §3, §4

[12] = test system: Pseud. aeruginosa 1771; test: as above; format: cell-based; settings: Pseudomonas aeruginosa
Description: as §1, §2, §3, §4

[13] = test system: Pseud. aeruginosa ATCC 9027; test: as above; format: cell-based; settings: Pseudomonas aeruginosa, ATCC9027
Description: as §1, §2, §3, §4

[14] = test system: Saim. typhimurium; test: as above; format: cell-based
Description: as §1, §2, §3, §4

[15] = test system: Staph. aureus 285; test: as above; format: cell-based; settings: Staphylococcus aureus
Description: as §1, §2, §3, §4

[16] = test system: Staph. aureus 503; test: as above; format: cell-based; settings: Staphylococcus aureus
Description: as §1, §2, §3, §4

[17] = test system: Staph. aureus SG 511; test: as above; format: cell-based; settings: Staphylococcus aureus, SG511
Description: as §1, §2, §3, §4

[18] = test system: Strept. faecium D; test: as above; format: cell-based; settings: Enterococcus faecium
Description: as §1, §2, §3, §4

[19] = test system: Strept. pyogenes 308 A; test: as above; format: cell-based; settings: Streptococcus pyogenes
Description: as §1, §2, §3, §4

[20] = test system: Strept. pyogenes 77 A; test: as above; format: cell-based; settings: Streptococcus pyogenes
Description: as §1, §2, §3, §4

[21] = test system: gram-positive and gram-negative bacteria; test: Antibacterial activity (general statement); format: cell-based; settings: in words
[22] = Cytotoxic / cytostatic activity (general statement); settings: in words

Compound	MIC [1]	MIC [3]	MIC [4]	MIC [5]	MIC [6]	MIC [7]	MIC [8]	MIC [10]	MIC [11]	MIC [12]	MIC [13]	MIC [14]	MIC [15]	MIC [16]	MIC [17]	MIC [18]	MIC [19]	MIC [20]	antibacterial / antibiotic activity [21]	cytotoxic activity / cytostatic effect [22]	further results
COc1c(C)c(O)c2c(c1O)C(CO)[N+]1=CC3CC4C(C1C2N1CCOC41)N3C (centres unmarked) [Compound 31668P]	0.049 µg/mL	0.781 µg/mL	0.195 µg/mL	0.195 µg/mL	0.098 µg/mL	0.195 µg/mL	0.391 µg/mL	0.781 µg/mL	0.391 µg/mL	1.56 µg/mL	0.781 µg/mL	0.391 µg/mL	< 2 ng/mL	< 2 ng/mL	< 2 ng/mL	0.025 µg/mL	< 2 ng/mL	< 2 ng/mL	active against a large number of both gram-positive and gram-negative bacteria; also recorded: have an antibiotic activity	cytotoxic activity; also recorded: cytostatic effect	MIC ([2]; 1507E): 0.195 µg/mL; MIC ([9]; Klebs. spec. 1522 E): 0.391 µg/mL
COC1=C(C)C(=O)C2=C(C1=O)C(CO)[N+]1=CC3CC4C(C1C2N1CCOC41)N3C (centres unmarked) [Compound 31668U]	0.195 µg/mL	6.25 µg/mL	0.781 µg/mL	1.56 µg/mL	0.195 µg/mL	1.56 µg/mL	0.781 µg/mL	6.25 µg/mL	1.56 µg/mL	12.5 µg/mL	6.25 µg/mL	3.13 µg/mL	< 2 ng/mL	< 2 ng/mL	< 2 ng/mL	0.195 µg/mL	< 2 ng/mL	< 2 ng/mL	active against a large number of both gram-positive and gram-negative bacteria; also recorded: have an antibiotic activity	cytotoxic activity; also recorded: cytostatic effect	MIC ([2]; E. coli 1507 E): 3.13 µg/mL; MIC [9]: 1.56 µg/mL
